# Data: patent publication US20210299079A1, “MONOMETHYL FUMARATE-CARRIER CONJUGATES AND METHODS OF THEIR USE” (Flagship Pioneering Innovations V, Inc., priority 2018, published 2021)
# Structures can show the parent of a compound that is named as a salt.
# How the values were obtained:
# [1] = In Vitro Biotransformation and Detection of Monomethyl Fumarate Assay; assay type: in vitro ADME; details: FaSSIF with pancreatin pH 6.5, 100 μM compound, 0 h and 2 h, UHPLC-MSMS
# Procedure: Stock solution of compound 2 was prepared at 10 mM in DMSO. FaSSIF was made by mixing sodium taurocholate (3.0 mM) Lecithin (0.75 mM), and pancreatin (10 mg/mL) in prepared solution of sodium phosphate monobasic (28.4 mM), sodium hydroxide (8.7 mM), sodium chloride (105.9 mM), pH 6.5. Compound 2, was added to FaSSIF to final concentration of 100 μM. Release of monomethyl fumaric acid (MMF) was monitored via UHPLC-MSMS and comparing the retention time and corresponding fragmentation of released MMF to retention time and fragmentation of a neat solution of MMF that was analyzed separately with the same method described below. Release of MMF was measured at 0 h and 2 h time points. At both time points samples were centrifuged at 14000 rpm for 10 minutes at 4° C. Supernatants were then transferred to HPLC vials and analyzed immediately. The results of this assay are illustrated in FIG. 1.
# [2] = In vitro Colonic Material Stability Assay; assay type: in vitro ADME; details: colonic material slurry in YCFAC media, anaerobic, 1 or 10 μM
# Method in brief: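 Anaerobically, a colonic material slurry (15% w/v) was inoculated into YCFAC or other suitable media. Compounds were added at 1 or 10 μM final. Samples taken at 0–2880 min were quenched with acetonitrile containing internal standard and analysed by LC/MS.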
# [3] = Stability of conjugates in Simulated Gastric Fluid (SGF); assay type: in vitro ADME; details: SGF pH 1.6 with pepsin, 37° C., 1 μM compound
# Method in brief: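 Compound at 1 μM (from 1 mM DMSO stock) in pH 1.6 NaCl medium with FaSSIF powder and 0.1 mg/mL pepsin, mixed at 37° C. Aliquots quenched with equal volume acetonitrile at T0 and regular intervals; LC/MS gives degradation rate.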
# [4] = Stability of conjugates in Simulated Intestinal Fluid (SIF); assay type: in vitro ADME; details: SIF pH 6.7 with pancreatin, 37° C., 1 μM compound
# Method in brief: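 Compounds at 1 μM in fresh simulated intestinal fluid: FaSSIF powder in pH 6.7 phosphate buffer with pancreatin. Agitated at 37 °C; aliquots taken at T0 and regular intervals, quenched with 1 volume acetonitrile. Degradation rates determined by LC/MS.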
# [5] = male, Sprague Dawley, rat, in vivo, po
# Procedure: The amount of compound dosed was normalized to provide approximately equimolar amounts of monomethylfumarate. Approximately 150 μL whole blood samples were collected at 15 and 30 min; and 1, 2, 4, 8, and 24 h post-dosing from the jugular or tail vein. 100 μL of samples were added to K2EDTA tubes pre-filled with 300 μL of 100 mM tiopronin in 100 mM ammonium bicarbonate (pH 9.0). Samples were vortex-mixed for approximately 5 min at ambient temperature in order to trap free fractions of monomethyl fumarate.
# AhR = target: T1, AhR (Homo sapiens, UniProt P35869); assay: AhR Activation in Caco-2 Cells Through CYP1A1 mRNA Expression; details: overnight
# T1 sequence (P35869 11-848): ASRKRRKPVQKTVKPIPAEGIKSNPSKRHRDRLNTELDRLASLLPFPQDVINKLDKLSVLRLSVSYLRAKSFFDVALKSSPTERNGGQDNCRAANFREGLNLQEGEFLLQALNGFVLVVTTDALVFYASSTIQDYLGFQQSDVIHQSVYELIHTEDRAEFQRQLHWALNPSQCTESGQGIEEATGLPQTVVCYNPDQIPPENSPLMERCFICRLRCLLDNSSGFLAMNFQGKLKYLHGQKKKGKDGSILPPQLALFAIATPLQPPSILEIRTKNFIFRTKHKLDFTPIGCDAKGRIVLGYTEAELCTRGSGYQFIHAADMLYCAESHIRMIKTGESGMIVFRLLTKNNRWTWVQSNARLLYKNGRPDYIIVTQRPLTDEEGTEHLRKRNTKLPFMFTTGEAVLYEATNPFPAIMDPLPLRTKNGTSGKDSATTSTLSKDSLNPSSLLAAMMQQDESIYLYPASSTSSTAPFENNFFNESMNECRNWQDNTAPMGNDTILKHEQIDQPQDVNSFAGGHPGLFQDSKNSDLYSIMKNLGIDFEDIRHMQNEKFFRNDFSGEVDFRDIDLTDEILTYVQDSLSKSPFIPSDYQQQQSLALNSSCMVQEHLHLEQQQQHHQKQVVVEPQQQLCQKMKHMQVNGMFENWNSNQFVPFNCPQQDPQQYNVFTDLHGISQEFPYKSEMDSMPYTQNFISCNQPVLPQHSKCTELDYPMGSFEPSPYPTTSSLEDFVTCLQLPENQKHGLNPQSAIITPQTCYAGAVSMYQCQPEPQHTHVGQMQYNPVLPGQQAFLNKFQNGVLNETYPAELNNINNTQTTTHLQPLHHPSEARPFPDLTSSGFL
# Procedure: Caco-2 cells from American Type Culture Collection (ATCC) were plated in a sterile tissue culture treated 96-well plate (ThermoFisher) at 8.0×10^5 cells per well, and grown overnight at 37° C., 5% CO2 in DMEM complete (Gibco) in order to achieve confluence. After the incubation medium was aspirated off of the Caco-2 monolayers, tissues were then washed with 200 μL of warmed PBS solution, and subsequently 190 μL of pre-warmed growth medium was added to each well. Compounds of interest were diluted at a 20× concentration in growth medium containing 2% DMSO, and 10 μL of compound solutions were added to respective wells in triplicate. Compounds where incubated overnight at 37° C., 5% CO2. 2-(1′H-indole-3′-carbonyl)-thiazole-4-carboxylic acid methyl ester (ITE) was used as the positive control for AhR activation at 1 and 100 μM concentrations. At the end of the incubation, medium was aspirated off of the Caco-2 cells, and washed with 100 μL of cold PBS solution. RNA was extracted via the TaqMan™ Gene Expression Cells-to-CT™ Kit (ThermoFisher) according to the manufacturer's protocol. The QuantStudio 6 Flex (Applied Biosciences) was used to analyze mRNA levels of CYP1A1 using GAPDH as the endogenous control. TaqMan™ probe sets for both genes were acquired from ThermoFisher. Samples were run in triplicate and data was analyzed using the QuantStudio software and reported as linear (Table 6) and log 2(ΔΔCT) values. Statistical analysis was performed using a two-tailed t-test comparing CYP1A1 levels in the presence of each individual compound to the vehicle negative control.
# IL-8 = assay: Neutrophil Chemokine Production Assay: IL-8; assay type: cell-based; details: human neutrophils, 12 h
# Procedure: (§1) A volume 25 mL of human blood was layered over 15 mL of Histopaque®-1077 and centrifuged at 500 g, R^T, for 30 min with no break applied to the centrifuge. The PBMC band and Histopaque®-1077 layer were removed leaving behind the bottom red layer which was mixed with 40 mL of 1× red blood cell (RBC) lysis buffer (Sigma-Aldrich) was and split into two 50 mL tubes. The volume for both fractions was brought to 50 mL with RBC lysis buffer, mixed by inversion, and then incubated at RT for 10 min. Solutions were centrifuged at 250 g, for 10 min at RT and the supernatant liquids removed. The reddish pellets were re-suspended in 1 mL of RBC lysis buffer and combined. The cell suspension was incubated for 5 min at RT in RBC lysis buffer. After incubation 45 mL of Hanks Balanced Salt Solution with no calcium, magnesium or phenol red (HBSS—) was added, the cell suspension was spun (250 g for 10 min at RT), and supernatant liquids were removed. The white pellet was re-suspended in 1 mL of HBSS—, and cell counts were determined. The neutrophil cell suspension was brought to a concentration of 1.11e6 cells/mL in RPMI complete (Sigma-Aldrich), and 180 μL of cell suspension was transferred to all wells within a sterile 96-well tissue culture treated plate resulting in 2.0×10^5 cells/well. […] After incubation, 10 μL of 2 μg/mL LPS solution in RPMI complete was added to each well except for control wells, which received an additional 10 μL of media. Cells were incubated for 12 h (37° C., 5% CO2), after which plates were centrifuged at 250 g, RT, for 5 min and supernatant liquids were obtained and stored at −80° C. until analyzed via Luminex® Multiplex Assay for various chemokines and cytokines. Three data points were acquired from two different blood donors and averaged.
# Caco-2 colonocytes = assay: Human Caco-2 Barrier Integrity Assay, Study 1; assay type: cell-based; details: Caco-2, + cytokines (TNFα, IFNγ, IL-1β), 48 hours
# Procedure: Caco-2 colonocytes were maintained at 37° C. and 5% CO2 in Dulbecco's Modified Eagle Medium (DMEM) and supplemented with 10% FBS, 1% NEAA, 1% penicillin-streptomycin. At 70-80% confluency, cells were trypsinized and seeded in 0.4 cm^2 transwell collagen I coated membranes with supplemented DMEM in both apical and basolateral compartments. […] After 48 hours, TEER readings were taken again and viability was measured by CellTiter 96® AQueous One Solution Cell Proliferation Assay (Promega).
# naïve CD4+ T cells = assay: Human Regulatory T Cell Differentiation Assay; assay type: cell-based; details: 6 days; for Treg induction % DMSO: TGF-β; for Cell viability % DMSO: viability dye
# Procedure: Peripheral blood mononuclear cells (PBMCs) from whole blood donated by health volunteers were separated by Ficoll-Paque gradient centrifugation and naïve CD4^+ T cells were subsequently isolated using magnet beads (EasySep™ Human Naïve CD4^+ T Cell Isolation Kit, Cambridge, Mass.). For regulatory T cell (Treg) differentiation assay, naïve CD4^+ T cells were cultured (1-10×10^4 cells) in CTS OpTmizer medium for 6 days and stimulated with 5 ng/ml TGF-β, 100 U/ml IL-2, and ImmunoCult™ Human […] T Cell Activator; Stemcell #10990) with/without our Compounds. Cell viability was determined using a viability dye (eBioscience Fixable Viability Dye eFluor 780: ThermoFisher 65-0865-14) at 1:500 dilution. The cells were gated for Treg, defined as Live, CD11c^−, CD14^−, CD19^−, CD8^−, CD4^+, CD3^+, CD25^+, FOXP3^+. Percent (%) Tregs were calculated as percentage of CD4^+, CD25^+, FOXP3^+ cells over total CD4^+ T cells. Statistical analysis was performed with GraphPad Prism Software Using One-Way ANOVA.
# MIP-1α = assay: Neutrophil Chemokine Production Assay: MIP-1α; assay type: cell-based; details: human neutrophils, 12 h
# Procedure: as §1
# MIP-1β = assay: Neutrophil Chemokine Production Assay: MIP-1β; assay type: cell-based; details: human neutrophils, 12 h
# Procedure: as §1
smiles,measurement,setting,value
"CCC(=O)O[C@@H]1[C@@H](OC(=O)CC)[C@H](C)O[C@@H](OC(=O)/C=C/C(=O)OC)[C@@H]1OC(=O)CC [Compound 2, Methyl ((2S,3R,4R,5S,6S)-6-methyl-3,4,5-tris(propionyloxy)tetrahydro-2H-pyran-2-yl) fumarate]",Release of monomethyl fumaric acid (MMF),[1],actively released
same,Assay 3 (% Remaining at 24 h),[2],C (C: >75% of the tested compound remaining)
same,Assay 1 (SGF) (% Remaining @ 1 hour),[3],C (C: >75% of the tested compound remaining)
same,Assay 2 (SIF) (% @ Remaining 4 hours),[4],B (B: 25-75% of the tested compound remaining)
"COC(=O)/C=C/C(=O)OCCN1C(=O)CCC1=O [Diroximel Fumarate, diroximel fumarate]",AUClast,[5],9381 ng·h/mL
same,Cmax,[5],17251 ng/mL
same,Tmax,[5],15 min
"COC(=O)c1csc(C(=O)c2c[nH]c3ccccc23)n1 [ITE, 2-(1′H-indole-3′-carbonyl)-thiazole-4-carboxylic acid methyl ester, reference compound]",Average CYP1A1 mRNA levels,AhR; Conc. 1.0 μM,+++ (+++ = >10-fold Vehicle)
CC(O)CCO (stereo not drawn) [butanediol],Average CYP1A1 mRNA levels,AhR; Conc. 500.0 μM,− (− = <2-fold Vehicle)
O=C(O[C@@H]1Cc2c(O)cc(O)cc2O[C@@H]1c1cc(O)c(O)c(O)c1)c1cc(O)c(O)c(O)c1 [epigallocatechin gallate],% IL-8 (Vehicle + LPS = 100%),IL-8; Conc. 0.1 μM,− (− = >90% Vehicle)
same,% IL-8 (Vehicle + LPS = 100%),IL-8; Conc. 1.0 μM,− (− = >90% Vehicle)
same,% Change in TEER from DMSO,Caco-2 colonocytes; 100 nM,− (<125%: −)
same,% Change in TEER from DMSO,Caco-2 colonocytes; 1 μM,− (<125%: −)
same,Treg induction % DMSO,"naïve CD4+ T cells; IL-2, 100 nM",= (90% > <110%: =)
same,Treg induction % DMSO,"naïve CD4+ T cells; IL-2, 1 μM",= (90% > <110%: =)
same,Cell viability % DMSO,naïve CD4+ T cells; 100 nM,= (90% > <110%: =)
same,Cell viability % DMSO,naïve CD4+ T cells; 1 μM,= (90% > <110%: =)
same,Average CYP1A1 mRNA levels,AhR; Conc. 0.1 μM,− (− = <2-fold Vehicle)
same,Average CYP1A1 mRNA levels,AhR; Conc. 1.0 μM,− (− = <2-fold Vehicle)
same,% MIP-1α (Vehicle + LPS = 100%),MIP-1α; Conc. 0.1 μM,− (− = >90% Vehicle)
same,% MIP-1α (Vehicle + LPS = 100%),MIP-1α; Conc. 1.0 μM,− (− = >90% Vehicle)
same,% MIP-1β (DMSO + LPS = 100%),MIP-1β; Conc. 0.1 μM,− (− = >90% Vehicle)
same,% MIP-1β (DMSO + LPS = 100%),MIP-1β; Conc. 1.0 μM,− (− = >90% Vehicle)
c1ccc2[nH]ccc2c1 [indole],Average CYP1A1 mRNA levels,AhR; Conc. 1000.0 μM,+ (+ = >2-fold Vehicle)
